Laboratory results taken from patent publication US20070107083A1, “Method for regulating plant growth” (priority 2004, published 2007).
“Also recorded” adds a separate entry of the source.

Experiments:
[1] = test system: Saccharomyces cerevisiae strain YZGA452; assay type: cell-based
[2] = test system: Wild-type Saccharomyces cerevisiae; assay type: cell-based
[3] = test system: DOGT1 promoter (PDOGT1-GUS); assay type: in vivo, Arabidopsis thaliana; settings: seedlings; DON 5 ppm for 4 h, ACC 2 μM for 1 h, SA 200 μM for 12 h, JA 50 μM for 1 h
DOGT1 (UGT73C5) mRNA = assay: Semiquantitative RT-PCR of DOGT1 mRNA after compound treatment; assay type: in vivo, Arabidopsis thaliana; settings: for DOGT1 mRNA expression (RT-PCR): seedlings in liquid MS, 5 ppm DON, 200 μM SA, 2 μM ACC or 50 μM JA
UGT73C4 mRNA = assay: Semiquantitative RT-PCR of 73C4 mRNA after compound treatment; assay type: in vivo, Arabidopsis thaliana; settings: seedlings in liquid MS; 5 ppm DON, 200 μM SA
UGT73C6 mRNA = assay: Semiquantitative RT-PCR of 73C6 mRNA after compound treatment; assay type: in vivo, Arabidopsis thaliana; settings: seedlings in liquid MS, 5 ppm DON, 200 μM SA, 2 μM ACC or 50 μM JA
[4] = test system: A. thaliana high DOGT1-expression line (1319/2); assay: Phenotype of DOGT1-overexpressing seedlings on brassinosteroid media; assay type: in vivo, Arabidopsis thaliana; settings: 10 day old seedlings
Protocol: (§1) 10 day old seedlings were transferred to MS media resp. MS media containing 1.0 μM BL and incubated for another 10 days before phenotypic analysis. […] Right: Seedlings of lines expressing DOGT1 grown on MS media show a BR-deficient phenotype (short hypocotyls and smaller leaves with shorter petioles compared to wild-type).
(§2) Plant material and growth conditions. A. thaliana experiments were conducted with the wild-type ecotype Columbia-0 (Col-0). For propagation seeds were sterilized, plated on standard MS growth medium (Murashige et al., Plant Physiology 15 (1962), 473-497) supplemented with 1.0% sucrose and 1.0% phytagar (Life Technologies) and subjected to a 2 day dark treatment at 4° C. to synchronize germination. The seedlings were grown for 2 weeks in a controlled environment of 16 h/8 h light-dark cycle (140 μmol m^−2 sec^−1 white light) at 22° C. before they were transferred to soil and grown at 20° C. and 55% humidity under continuous white light.
(§3) The effect of externally applied epi-brassinolide (epi-BL) was determined by transferring 10 day old seedlings of wild-type and a high DOGT1-expression line (1319/2) to media containing different concentrations of the brassinosteroid. The plants were incubated for 10 days before the phenotype was analysed.

[5] = test system: A. thaliana wild-type Col-0; assay: Phenotype of wild-type seedlings on brassinosteroid media; assay type: in vivo, Arabidopsis thaliana; settings: 10 day old seedlings
Protocol: as §1, §2, §3

[6] = test system: dwarf mutants with defects in BR biosynthesis; settings: application of brassinolide; cited from earlier work
[7] = MS media containing 1.0 μM BL, another 10 days
[8] = media with different concentrations, 10 days

Row | Structure (SMILES) | PDOGT1-GUS expression [3] | DOGT1 mRNA expression (RT-PCR) (DOGT1 (UGT73C5) mRNA) | 73C4 mRNA expression (RT-PCR) (UGT73C4 mRNA) | 73C6 mRNA expression (RT-PCR) (UGT73C6 mRNA) | further results
1 | CC1=C[C@H]2O[C@@H]3[C@H](O)C[C@](C)([C@@]2(CO)[C@H](O)C1=O)[C@]31CO1 [DON, deoxynivalenol] | induce PDOGT1-GUS expression | DON inducible expression | DON inducible | stronger induction of expression | growth of yeast transformed with the empty library plasmid ([1]; 180 ppm DON in media): completely inhibit growth; sensitivity of strain YZGA452 ([1]; strain deficient in four ABC transporters): hypersensitive; resistance of wild-type yeast [2]: highly resistant; time of peak of transcript amounts (DOGT1 (UGT73C5) mRNA; incubation with 5 ppm DON, stated for DOGT1, 73C4 and 73C6 transcripts): 4 h
2 | CC(C)[C@H](C)[C@@H](O)[C@H](O)[C@@H](C)[C@H]1CC[C@H]2[C@@H]3COC(=O)[C@H]4C[C@H](O)[C@H](O)C[C@]4(C)[C@H]3CC[C@]12C [BL, Brassinolide] | – | – | – | – | phenotype of DOGT1-expressing seedlings [4, 7]: restores wild-type growth; phenotype of wild-type seedlings [5, 7]: typical growth response; growth of dwarf mutants with defects in BR biosynthesis [6]: restores normal growth
3 | CC/C=C\C[C@H]1C(=O)CC[C@@H]1CC(=O)O [JA, jasmonic acid] | No induction of expression | responded weekly with elevated mRNA levels | – | responded weekly with elevated mRNA levels | DOGT1 mRNA expression (RT-PCR) (DOGT1 (UGT73C5) mRNA; listed as Jasmonic acid): weak induction of expression; 73C6 mRNA expression (RT-PCR) (UGT73C6 mRNA; listed as Jasmonic acid): weak induction of expression
4 | O=C(O)c1ccccc1O [SA, salicylic acid] | No induction of expression | rather weakly; also recorded: responded weekly with elevated mRNA levels | rather weakly | rather weakly; also recorded: responded weekly with elevated mRNA levels | –
5 | CC(C)[C@@H](C)[C@@H](O)[C@H](O)[C@@H](C)[C@H]1CC[C@H]2[C@@H]3COC(=O)[C@H]4C[C@H](O)[C@H](O)C[C@]4(C)[C@H]3CC[C@]12C [epi-BL, epi-brassinolide] | – | – | – | – | phenotype of high DOGT1-expression line 1319/2 [4, 8]: restored to wild-type phenotype; phenotype of Col-0 [5, 8]: typical growth response
